Experimental data published in paper PMC4113355, “Carbamoylating Activity Associated with the Activation of the Antitumor Agent Laromustine Inhibits Angiogenesis by Inducing ASK1-Dependent Endothelial Cell Death” (PLoS ONE, 2014).

Target: T1, Trx reductase-1 (TrxR1) (Rattus norvegicus, UniProt O89049)
T1 construct: gene Txnrd1
T1 sequence (O89049 1-499): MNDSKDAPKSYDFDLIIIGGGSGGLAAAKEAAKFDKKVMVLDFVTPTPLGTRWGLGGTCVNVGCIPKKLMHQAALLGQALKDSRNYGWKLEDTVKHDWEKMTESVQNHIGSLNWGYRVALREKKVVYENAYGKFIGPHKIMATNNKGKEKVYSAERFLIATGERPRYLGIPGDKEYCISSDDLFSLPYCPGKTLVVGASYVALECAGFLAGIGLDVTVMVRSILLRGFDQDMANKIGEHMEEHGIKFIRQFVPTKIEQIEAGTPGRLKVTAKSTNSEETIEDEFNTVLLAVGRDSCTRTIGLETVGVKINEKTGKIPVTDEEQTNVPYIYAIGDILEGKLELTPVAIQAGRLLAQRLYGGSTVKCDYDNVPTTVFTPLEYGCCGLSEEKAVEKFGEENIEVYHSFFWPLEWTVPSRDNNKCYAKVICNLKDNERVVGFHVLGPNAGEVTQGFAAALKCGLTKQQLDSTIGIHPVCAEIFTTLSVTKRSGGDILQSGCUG
Assay: DTNB reduction assay with purified TrxR1, […] h pre-incubation with NADPH at pH […]

SMILES | IC50 [µM]
CNC(=O)N(NS(C)(=O)=O)S(C)(=O)=O [101MDCE, 1,2-bis(methylsulfonyl)-1-[(methylamino)carbonyl]hydrazine] | 9.9 ± 3.1
CNC(=O)N(N(CCCl)S(C)(=O)=O)S(C)(=O)=O [Laromustine, 1,2-bis(methylsulfonyl)-1-(2-chloroethyl)-2-[(methylamino)carbonyl]hydrazine] | 5 ± 1.1
O=NN(CCCl)C(=O)NCCCl [BCNU, 1,3-bis(2-chloroethyl)-1-nitrosourea] | 5.4 ± 1.4
